The source of these data is paper PMC8448514, “Exploratory comparisons between different anti-mitotics in clinically-used drug combination in triple negative breast cancer” (Oncotarget, 2021).

Each structure is given as a SMILES string.

One data set concerns breast cancer. The conditions noted are these: cited from earlier work.
The nature of data set [1]: Body weight and clinical monitoring.
Experimental: (§2) Animals of all experimental groups were monitored with regards to their weight, behavior and clinical aspects. Animals body weight were assessed prior the beginning of treatment and twice a week throughout the experiment period as an important indicator of toxicity.
All treatments were administered intraperitoneally (i.p) (Figure 7).
Animal weight was also monitored with help of a digital scale twice a week.
Another data set deals with ALDH1-A1. Kind of data set: ALDH1-A1 immunohistochemistry of tumor sections. The conditions noted are these: 4bt, 4bc 80 mg/Kg, paclitaxel 20 mg/Kg; vs vehicle. Type of data set: in vivo, mice. From the text:
After acquisition, images were submitted to a semi-quantitative analysis using the IHC Profiler plug-in (National Institute of Health) from ImageJ software. Images were submitted to a deconvolution process, and histogram profiles, corresponding to pixel intensity as well as a stain-positivity percentage value derived from a scoring system based on optical density, were automatically generated. Areas rated as highly positive or positive were considered for analysis.
In order to evaluate the role of KIF-11 inhibitors in some key features for tumor progression and development, we analyzed tumor sections for the levels of KIF-11, ALDH1-A1 and Ki67 expression by immunofluorescence (IF) or immunohistochemistry. Immunostaining was performed on 5 μm sections of formalin-fixed paraffin-embedded (FFPE) tissue. […]
(§1) Slides were then washed in PBS/0.025% Triton, incubated at room temperature in the dark with (1:500) Alexa Fluor 488-Anti-rabbit secondary antibody, for KIF-11 and Ki67, or (1:250) Goat anti-rabbit HRP, for ALDH1-A1 for 1 hour, washed three times with PBS. […] Slides for ALDH1-A1 analysis were counterstained with hematoxylin and analyzed under light microscope Axiovert (Zeiss, Germany).
For ALDH1-A1 quantification of positive areas, IHC Profiler plug-in was used as previously described for TUNEL analysis.

For the next data set, the system named is Balb-c/nude mice. Kind of data set: Behavioral observation (motor capacity, peripheral neuropathy). It is filed as in vivo. The conditions noted are these: a few minutes after administration; paclitaxel 10 or 20 mg/Kg, 4bt 80 mg/Kg; monotherapy and drug combination.
The subject of another data set is KIF11. Description: Intratumoral KIF11 expression by immunofluorescence. The conditions noted are these: 4bt, 4bc 80 mg/Kg; paclitaxel 20 mg/Kg; AC-T; AC-4bt; vs vehicle. It is filed as in vivo, mice. On the procedure: In order to evaluate the role of KIF-11 inhibitors in some key features for tumor progression and development, we analyzed tumor sections for the levels of KIF-11, ALDH1-A1 and Ki67 expression by immunofluorescence (IF) or immunohistochemistry. Immunostaining was performed on 5 μm sections of formalin-fixed paraffin-embedded (FFPE) tissue. Tissue slides were baked, deparaffinized in xylene and passed through graded alcohols for rehydration. Antigen retrieval was achieved submitting samples to a 10 mM Trisodium Citrate solution, pH 6.0 in a steam pressure cooker at 100°C for 10 minutes. Slides were then left immersed in the Trisodium Citrate solution at room temperature for 20 minutes before being washed with PBS/0.025% Triton. The area around each section was delimited by a hydrophobic liquid blocker (PAP-Pen) in order to assure homogeneous distribution of reagents and antibodies.
as §1

Data set [2] relates to Balb-c nude mice bearing breast tumor. Kind of data set: Red blood cell analysis (complete blood count). The conditions noted are these: 20 mg/kg i.p., monotherapy; mean ± SEM. Type of data set: in vivo.
For data set [3], the system named is breast cancer induced by MDA-MB-231. Kind of data set: Tumor volume monitoring in xenograft model. The conditions noted are these: used in combination with doxorubicin 10 mg/Kg and cyclophosphamide 100 mg/Kg; 4bt 80 mg/Kg, paclitaxel 10 mg/Kg. Type of data set: in vivo, mice. On the procedure:
Mice were anesthetized with ketamine (80 mg/kg of body weight) and xylazine (20 mg/kg of body weight) solution. 2 × 10^6 MDA-MB-231 cells in PBS/20% type I Collagen (100 μL) were inoculated in the fourth right mammary fat pad. After tumor establishment, about 5 weeks after inoculation, mice were randomized into experimental groups (n = 5 per group), and treatment started.

Data set [4] deals with Balb-c nude mice bearing breast tumor. Description: Biochemical analysis of blood (liver and kidney toxicity). It is filed as in vivo. The conditions noted are these: 20 mg/kg i.p., monotherapy.
In data set [5] the test system is intratumoral necrotic area of MDA-MB-231 tumor. Description: Histopathological analysis of tumor sections (H&E). Type of data set: in vivo, mice. The note with it: monotherapy; 4bt, 4bc 80 mg/Kg, paclitaxel 20 mg/Kg; vs vehicle. The method, then:
Tumors and lungs were fixed in 10% buffered formalin and processed for paraffin embedding. Processed material was sectioned at 5 μm, and sections were stained with hematoxylin & eosin (HE) for analysis under the light microscope Axiovert (Zeiss, Germany). Tumor and lung sections were analyzed for general histopathological assessment.

For another data set, the system named is tumor cell apoptosis. Description: TUNEL assay for apoptosis in tumor sections. Type of data set: in vivo, mice. The note with it: paclitaxel 20 mg/Kg; AC-T; AC-4bt; vs vehicle. On the procedure: The level of apoptosis in tumor sections was determined by TUNEL assay. TUNEL staining was performed on paraffin-embedded sections using Click-iT™ TUNEL Colorimetric IHC Detection Kit (Invitrogen, Carlsbad – USA) according to the manufacturer’s protocol. Briefly, the sections were dewaxed, rehydrated, and immersed in 4% paraformaldehyde fixative solution for 15 minutes. They were then washed and incubated with proteinase K for 20 min at room temperature. The slides were washed with PBS for 5 minutes, and immersed in 4% paraformaldehyde fixative solution again for 5 minutes at room temperature. Slides were then washed with PBS (twice, for 5 minutes) and rinsed with deionized water. Samples were incubated in TdT Reaction Buffer for 10 minutes at 37°C. The TdT reaction buffer was gently removed using paper towels and slides were incubated with TdT Reaction Mixture for another hour at 37°C in a humidified chamber. After being rinsed with PBS, slides were immersed in 2X SSC for 15 minutes, in order to fully quench TdT reaction. Slides were washed with 1X Click-iT™ TUNEL Colorimetric Wash solution and incubated with the Click-iT™ TUNEL Colorimetric Reaction cocktail for 30 minutes at 37°C, protected from light. […]
After acquisition, images were submitted to a semi-quantitative analysis using the IHC Profiler plug-in (National Institute of Health) from ImageJ software. […]

In data set [6] the test system is Balb-c nude mice bearing breast tumor. Kind of data set: White blood cell and platelet analysis (complete blood count). Type of data set: in vivo. The note with it: 20 mg/kg i.p., monotherapy, mean ± SEM.

Experimental for Balb-c/nude mice: as §2

With `Cc1ccc(C(=O)N(CCCN)[C@@H](c2nc3cc(Cl)ccc3c(=O)n2Cc2ccccc2)C(C)C)cc1` [Ispinesib], the Neurotoxicity / tolerability entry with breast cancer (clinical) is given as “no indication of neurotoxicity”. Also, in the data set on breast cancer (phase I trial in breast cancer), the “Antitumor activity in phase I trial” value is “relevant antitumor activity and stabilization of the disease”.

Consider `CC(=O)O[C@H]1C(=O)[C@@]2(C)[C@H]([C@H](OC(=O)c3ccccc3)[C@]3(O)C[C@H](OC(=O)[C@H](O)[C@@H](NC(=O)c4ccccc4)c4ccccc4)C(C)=C1C3(C)C)[C@]1(OC(C)=O)CO[C@@H]1C[C@@H]2O` [Paclitaxel, paclitaxel], for which, in [1] (cycles of paclitaxel 10 mg/Kg or 4bt 80 mg/Kg after AC), the Body weight change entry is listed as “did not cause any further reduction”. The Body weight change entry in [1] (monotherapy, 4bt and 4bc 80 mg/Kg, PTX 20 mg/Kg, 1 week after the beginning of treatment, no significant change afterwards) is listed as “weight reduction”. For the same compound, the ALDH1-A1 expression change entry in the data set with ALDH1-A1 was “didn’t cause significant changes in ALDH1-A1 expression”. Also, in the data set on Balb-c/nude mice, the “Motor capacity / behavioral changes” value is on record as “reduced motor capacity”. Moreover, in the data set on KIF11, the “Intratumoral KIF11 expression” value is listed as “didn’t cause any change on KIF11 levels”. In data set [2], the Hematocrit is recorded as 42.56 ± 0.62 %, the Hemoglobin is 12.80 ± 0.14 g/dL, the “MCH (mean corpuscular hemoglobin)” value is 15.73 ± 0.05 pg and the “MCHC (mean corpuscular hemoglobin concentration)” value amounted to 30.07 ± 0.12 g/dL. Moreover, in data set [2], the “MCV (mean corpuscular volume)” value worked out at 52.23 ± 0.42 fL, the “RDW (red cell distribution width)” value was determined as 22.85 ± 0.98 % and the Red cells is listed as 8.15 ± 0.08 10^6/mm^3. Further, the Tumor volume entry in data set [3] is reported as “significantly decreasing the tumor volume”. In addition, in data set [4], the Creatinine is reported as < 0,2 mg/dL. Also, in [4] (mean ± SEM), the “ALP (alkaline phosphatase)” value came to 86.50 ± 10.5 U/L, the “ALT (alanine transaminase)” value is given as 21.50 ± 1.50 UI/L, the “AST (aspartate aminotransferase)” value is 98.50 ± 21.50 UI/L and the “GGT (gamma-glutamyl transferase)” value is listed as less than 1 U/L. For the same compound, in data set [4] (mean ± SEM), the “LDH (lactate dehydrogenase)” value was determined as 464.50 ± 50.5 U/L and the Urea was 59.00 ± 2.00 mg/dL. In addition, in data set [5], the Intratumoral necrotic area entry is given as “reduction in the size of necrotic area”. The “TUNEL positive area staining (apoptotic activity)” value with tumor cell apoptosis was “substantially increase positive area staining”. Further, in [6], the “Basophils (%)” value worked out at 2 ± 1.25%, the “Basophils (Abs)” value is listed as 42.79 ± 22.69, the “Eosinophils (%)” value is 0.00% and the “Eosinophils (Abs)” value stood at 0.00. In data set [6], the “Lymphocytes (%)” value was determined as 78.63 ± 2.36%, the “Lymphocytes (Abs)” value was 1682.24 ± 602.57, the “MPV (mean platelet volume)” value worked out at 7.07 ± 0.12 fL and the “Monocytes (%)” value was found to be 4.79 ± 3.74%. For the same compound, in data set [6], the “Monocytes (Abs)” value was found to be 102.51 ± 65.75, the “Neutrophils (%)” value came out at 12.07 ± 5.10%, the “Neutrophils (Abs)” value is 258.30 ± 103.76 and the Platelets was 1070.01 ± 37.28 10^3/mm^3. Also, the “WBC (white blood cells)” value in [6] is 2139.39 ± 684.75. Moreover, the “WBC (white blood cells)” value in data set [6] (listed as paclitaxel) came out at 2139.39 ± 684.75.
